Reference: patent publication US9676754B2, “Triazolone compounds and uses thereof” (Inception 2, Inc., priority 2012, dated 2017)

Molecular target: T1, Human PPARα (Homo sapiens, UniProt Q07869)
T1 construct: host or cells: proprietary non-human mammalian cells
T1 sequence (Q07869 1-468): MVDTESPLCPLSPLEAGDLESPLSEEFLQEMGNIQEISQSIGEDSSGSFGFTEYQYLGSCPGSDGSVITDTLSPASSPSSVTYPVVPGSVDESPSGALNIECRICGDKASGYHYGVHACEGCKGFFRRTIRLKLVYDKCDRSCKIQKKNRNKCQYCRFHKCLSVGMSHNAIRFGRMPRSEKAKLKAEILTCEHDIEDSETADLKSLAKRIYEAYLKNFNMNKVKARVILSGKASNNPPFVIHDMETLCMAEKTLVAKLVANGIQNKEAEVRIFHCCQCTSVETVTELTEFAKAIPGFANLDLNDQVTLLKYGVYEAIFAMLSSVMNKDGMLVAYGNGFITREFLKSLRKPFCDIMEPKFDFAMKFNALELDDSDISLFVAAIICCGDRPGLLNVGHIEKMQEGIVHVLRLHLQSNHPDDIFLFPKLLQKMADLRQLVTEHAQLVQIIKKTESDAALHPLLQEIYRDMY
Assay: Human PPARα Reporter Assay (luciferase)
Format: cell-based
Conditions: antagonist activity, luciferase reporter cells, overnight incubation; read-out: Human PPARα Reporter Assay-Luciferase IC50
Method: Human PPARα Reporter Assay
The screening of test compounds for agonist or antagonist activities against human PPARα receptors was performed using a commercial kit, Human PPARα Reporter Assay System (Indigo Biosciences, Cat. #IB00111).
This nuclear receptor assay system utilizes proprietary non-human mammalian cells engineered to provide constitutive, high-level expression of Human PPARα. Because these cells incorporate a PPARα-responsive luciferase reporter gene, quantifying expressed luciferase activity provides a sensitive surrogate measure of PPARα activity in the treated cells. The primary application of this reporter assay system is in the screening of test samples to quantify any functional activity, either agonist or antagonist, that they may exert against human PPARα. […] Briefly, the reporter cells are dispensed into wells of the assay plate and then immediately dosed with test compounds. Following an overnight incubation, the treatment media are discarded and Luciferase Detection Reagent (LDR) is added. The intensity of light emission from the ensuing luciferase reaction provides a sensitive measure that is directly proportional to the relative level of PPARα activation in the reporter cells.

| SMILES | IC50 |
| --- | --- |
| CCn1c(CCCc2cccc(-c3cccc(CC(=O)O)c3)c2)nn(Cc2ccc(C(C)(C)C)cc2)c1=O [Example 1, 2-(3′-(3-(1-(4-(tert-Butyl)benzyl)-4-ethyl-5-oxo-4,5-dihydro-1H-1,2,4-triazol-3-yl)propyl)-[1,1′-biphenyl]-3-yl)acetic acid] | 346 nM |
| CCn1c(CCCc2cccc(-c3ccc(CC(=O)O)cc3)c2)nn(Cc2ccc(C(C)(C)C)cc2)c1=O [Example 2, 2-(3′-(3-(1-(4-(tert-Butyl)benzyl)-4-ethyl-5-oxo-4,5-dihydro-1H-1,2,4-triazol-3-yl)propyl)-[1,1′-biphenyl]-4-yl)acetic acid] | 324 nM |
| CCn1c(CCCc2cccc(-c3cccc(C(=O)O)c3)c2)nn(Cc2ccc(C(C)(C)C)cc2)c1=O [Example 3, 3′-(3-(1-(4-(tert-Butyl)benzyl)-4-ethyl-5-oxo-4,5-dihydro-1H-1,2,4-triazol-3-yl)propyl)-[1,1′-biphenyl]-3-carboxylic acid] | 1330 nM |
| CCn1c(CCCc2cccc(-c3ccc(C(=O)O)cc3)c2)nn(Cc2ccc(C(C)(C)C)cc2)c1=O [Example 4, 3′-(3-(1-(4-(tert-Butyl)benzyl)-4-ethyl-5-oxo-4,5-dihydro-1H-1,2,4-triazol-3-yl)propyl)-[1,1′-biphenyl]-4-carboxylic acid] | 110 nM |
| CCOc1ccc(-c2cccc(CCCc3nn(Cc4ccc(C(C)(C)C)cc4)c(=O)n3CC)c2)cc1C1(C(=O)O)CC1 [Example 5, 1-(3′-(3-(1-(4-(tert-Butyl)benzyl)-4-ethyl-5-oxo-4,5-dihydro-1H-1,2,4-triazol-3-yl)propyl)-4-ethoxy-[1,1′-biphenyl]-3-yl)cyclopropanecarboxylic acid] | 137 nM |
| CCn1c(CCCc2cccc(-c3cccc(C4(C(=O)O)CC4)c3)c2)nn(Cc2ccc(C(C)(C)C)cc2)c1=O [Example 7, 1-(3′-(3-(1-(4-(tert-Butyl)benzyl)-4-ethyl-5-oxo-4,5-dihydro-1H-1,2,4-triazol-3-yl)propyl)-[1,1′-biphenyl]-3-yl)cyclopropanecarboxylic acid] | 77 nM |
| CCn1c(CCCc2cccc(-c3ccc(C4(C(=O)O)CC4)cc3)c2)nn(Cc2ccc(C(C)(C)C)cc2)c1=O [Example 8, 1-(3′-(3-(1-(4-(tert-Butyl)benzyl)-4-ethyl-5-oxo-4,5-dihydro-1H-1,2,4-triazol-3-yl)propyl)-[1,1′-biphenyl]-4-yl)cyclopropanecarboxylic acid] | 487 nM |
| CCn1c(CCCc2cccc(-c3ccc(OC)c(C(=O)O)c3)c2)nn(Cc2ccc(C(C)(C)C)cc2)c1=O [Example 9, 3′-(3-(1-(4-(tert-Butyl)benzyl)-4-ethyl-5-oxo-4,5-dihydro-1H-1,2,4-triazol-3-yl)propyl)-4-methoxy-[1,1′-biphenyl]-3-carboxylic acid] | 548 nM |
| CCOc1ccc(-c2cccc(CCCc3nn(Cc4ccc(C(C)(C)C)cc4)c(=O)n3CC)c2)cc1C(=O)O [Example 10, 3′-(3-(1-(4-(tert-Butyl)benzyl)-4-ethyl-5-oxo-4,5-dihydro-1H-1,2,4-triazol-3-yl)propyl)-4-ethoxy-[1,1′-biphenyl]-3-carboxylic acid] | 211 nM |
| CCCOc1ccc(-c2cccc(CCCc3nn(Cc4ccc(C(C)(C)C)cc4)c(=O)n3CC)c2)cc1CC(=O)O [Example 11, 2-(3′-(3-(1-(4-(tert-Butyl)benzyl)-4-ethyl-5-oxo-4,5-dihydro-1H-1,2,4-triazol-3-yl)propyl)-4-propoxy-[1,1′-biphenyl]-3-yl)acetic acid] | 48 nM |
| CCn1c(CCCc2cccc(-c3ccc(NS(=O)(=O)c4ccccc4)cn3)c2)nn(Cc2ccc(C(C)(C)C)cc2)c1=O [Example 12, N-(6-(3-(3-(1-(4-(tert-Butyl)benzyl)-4-ethyl-5-oxo-4,5-dihydro-1H-1,2,4-triazol-3-yl)propyl)phenyl)pyridin-3-yl)benzenesulfonamide] | 302 nM |
| CCn1c(CCCc2cccc(-c3ccc(OC)c(CC(=O)O)c3)c2)nn(Cc2ccc(C(C)(C)C)cc2)c1=O [Example 13, 2-(3′-(3-(1-(4-(tert-Butyl)benzyl)-4-ethyl-5-oxo-4,5-dihydro-1H-1,2,4-triazol-3-yl)propyl)-4-methoxy-[1,1′-biphenyl]-3-yl)acetic acid] | 197 nM |
| CCn1c(CCCc2cccc(-c3ccc(C)c(C4(C(=O)O)CC4)c3)c2)nn(Cc2ccc(C(C)(C)C)cc2)c1=O [Example 14, 1-(3′-(3-(1-(4-(tert-Butyl)benzyl)-4-ethyl-5-oxo-4,5-dihydro-1H-1,2,4-triazol-3-yl)propyl)-4-methyl-[1,1′-biphenyl]-3-yl)cyclopropanecarboxylic acid] | 234 nM |
| CCn1c(CCCc2cccc(-c3ccc(OCc4ccccc4)c(CC(=O)O)c3)c2)nn(Cc2ccc(C(C)(C)C)cc2)c1=O [Example 15, 2-(4-(Benzyloxy)-3′-(3-(1-(4-(tert-butyl)benzyl)-4-ethyl-5-oxo-4,5-dihydro-1H-1,2,4-triazol-3-yl)propyl)-[1,1′-biphenyl]-3-yl)acetic acid] | 122 nM |

Next, values leading:

| IC50 | SMILES |
| --- | --- |
| 141 nM | CCn1c(CCCc2cccc(-c3ccc(OCC4CC4)c(CC(=O)O)c3)c2)nn(Cc2ccc(C(C)(C)C)cc2)c1=O [Example 16, 2-(3′-(3-(1-(4-(tert-Butyl)benzyl)-4-ethyl-5-oxo-4,5-dihydro-1H-1,2,4-triazol-3-yl)propyl)-4-(cyclopropylmethoxy)-[1,1′-biphenyl]-3-yl)acetic acid] |
| 83 nM | CCn1c(CCCc2cccc(-c3ccc(F)c(CC(=O)O)c3)c2)nn(Cc2ccc(C(C)(C)C)cc2)c1=O [Example 17, 2-(3′-(3-(1-(4-(tert-Butyl)benzyl)-4-ethyl-5-oxo-4,5-dihydro-1H-1,2,4-triazol-3-yl)propyl)-4-fluoro-[1,1′-biphenyl]-3-yl)acetic acid] |
| 750 nM | CCOc1ccc(CC(=O)O)cc1-c1cccc(CCCc2nn(Cc3ccc(C(C)(C)C)cc3)c(=O)n2CC)c1 [Example 18, 2-(3′-(3-(1-(4-(tert-Butyl)benzyl)-4-ethyl-5-oxo-4,5-dihydro-1H-1,2,4-triazol-3-yl)propyl)-6-ethoxy-[1,1′-biphenyl]-3-yl)acetic acid] |
| 119 nM | CCCOc1ccc(-c2cccc(CCCc3nn(Cc4ccc(C(C)(C)C)cc4)c(=O)n3CC)c2)cc1C(=O)O [Example 19, 3′-(3-(1-(4-(tert-Butyl)benzyl)-4-ethyl-5-oxo-4,5-dihydro-1H-1,2,4-triazol-3-yl)propyl)-4-propoxy-[1,1′-biphenyl]-3-carboxylic acid] |
| 896 nM | CCn1c(CCCc2cccc(-c3cccc(CNS(=O)(=O)c4ccccc4)c3)c2)nn(Cc2ccc(C(C)(C)C)cc2)c1=O [Example 20, N-((3′-(3-(1-(4-(tert-Butyl)benzyl)-4-ethyl-5-oxo-4,5-dihydro-1H-1,2,4-triazol-3-yl)propyl)-[1,1′-biphenyl]-3-yl)methyl)benzenesulfonamide] |
| 610 nM | CCn1c(CCCc2cccc(-c3ccc(OC)c(CCC(=O)O)c3)c2)nn(Cc2ccc(C(C)(C)C)cc2)c1=O [Example 21, 3-(3′-(3-(1-(4-(tert-Butyl)benzyl)-4-ethyl-5-oxo-4,5-dihydro-1H-1,2,4-triazol-3-yl)propyl)-4-methoxy-[1,1′-biphenyl]-3-yl)propanoic acid] |
| 64 nM | CCOc1ccc(-c2cccc(C(F)(F)CCc3nn(Cc4ccc(C(C)(C)C)cc4)c(=O)n3CC)c2)cc1CC(=O)O [Example 22, 2-(3′-(3-(1-(4-(tert-Butyl)benzyl)-4-ethyl-5-oxo-4,5-dihydro-1H-1,2,4-triazol-3-yl)-1,1-difluoropropyl)-4-ethoxy-[1,1′-biphenyl]-3-yl)acetic acid] |
| 659 nM | CCn1c(CCC(F)(F)c2cccc(-c3ccc(NS(=O)(=O)c4ccccc4)cn3)c2)nn(Cc2ccc(C(C)(C)C)cc2)c1=O [Example 23, N-(6-(3-(3-(1-(4-(tert-Butyl)benzyl)-4-ethyl-5-oxo-4,5-dihydro-1H-1,2,4-triazol-3-yl)-1,1-difluoropropyl)phenyl)pyridin-3-yl)benzenesulfonamide] |
| 2530 nM | CCn1c(CCCc2cccc(-c3ccc(OC)c(CC(=O)O)c3)n2)nn(Cc2ccc(C(C)(C)C)cc2)c1=O [Example 24, 2-(5-(6-(3-(1-(4-(tert-Butyl)benzyl)-4-ethyl-5-oxo-4,5-dihydro-1H-1,2,4-triazol-3-yl)propyl)pyridin-2-yl)-2-methoxyphenyl)acetic acid] |
| 2290 nM | CCn1c(CCCc2cccc(-c3cccc(-c4nnn[nH]4)c3)c2)nn(Cc2ccc(C(C)(C)C)cc2)c1=O [Example 25, 3-(3-(3′-(1H-Tetrazol-5-yl)-[1,1′-biphenyl]-3-yl)propyl)-1-(4-(tert-butyl)benzyl)-4-ethyl-1H-1,2,4-triazol-5(4H)-one] |
| 1240 nM | CCOc1ccc(-c2nccc(CCCc3nn(Cc4ccc(C(C)(C)C)cc4)c(=O)n3CC)n2)cc1CC(=O)O [Example 26, 2-(5-(4-(3-(1-(4-(tert-Butyl)benzyl)-4-ethyl-5-oxo-4,5-dihydro-1H-1,2,4-triazol-3-yl)propyl)pyrimidin-2-yl)-2-ethoxyphenyl)acetic acid] |
